What was measured:
[1] = cited from earlier work
[2] = Solubility of CoQ10 in solvents; format: physicochemical
Protocol: The speed at which the CoQ10 dissolves into the solvent is primarily a function of the temperature of the solvent and its viscosity, but the base composition that is prepared at a temperature above […] will have the same properties as a base prepared at a temperature of 37° C. If CoQ10 crystals are added to solvents hot enough to melt CoQ10 (48° C. to about 52° C.) the molten CoQ10 mixes and dissolves almost immediately. On the other hand, under room temperature conditions, several hours of stirring may be required to obtain even a 5% CoQ10 concentration in a highly viscous solvent such as a triglyceride oil. By contrast, a low viscosity solvent, such as sweet orange oil can dissolve a 30% CoQ10 concentration under room temperature almost immediately. The fact that CoQ10 melts at about 48° C. to about 52° C. and then is soluble at high concentrations in a wide range of only modestly hydrophobic media, such as ethanol, is distracting to the design of high concentration CoQ10 solutions at room temperature or body temperature. Many different high concentration solutions of CoQ10 which form readily at the high temperatures of molten CoQ10 are not stable, or are meta-stable, at body temperature.
Primary considerations in the choice of an acceptable water-immiscible solvent are somewhat similar to those in choosing an acceptable surfactant. In addition to the basic requirements of bio-compatibility, low toxicity and good taste and odor, the solvent must have a melting point at or about the temperature of a human and most other mammals (about 37° C.), and be able to dissolve a substantial amount of CoQ10 below body temperature. […] Once such a solvent is identified, the saturation capacity of the solvent with CoQ10 at body temperature is then determined, and a reduction in the concentration of CoQ10 is made to ensure that mixture of the CoQ10 and solvent, along with the more hydrophilic surfactant, will not cause CoQ10 precipitation. […]

SMILES: COC1=C(OC)C(=O)C(C/C=C(\C)CC/C=C(\C)CC/C=C(\C)CC/C=C(\C)CC/C=C(\C)CC/C=C(\C)CC/C=C(\C)CC/C=C(\C)CC/C=C(\C)CCC=C(C)C)=C(C)C1=O [CoQ10, coenzyme Q10]
- solubility of CoQ10 in water [1]: nearly insoluble in water
- thermodynamically stable concentration of CoQ10 in sweet orange oil ([2]; sweet orange oil, body temperature): up to 55%
- CoQ10 concentration dissolved in sweet orange oil ([2]; sweet orange oil, room temperature, almost immediately): 30%
- CoQ10 dissolvable in triglyceride oils ([2]; triglyceride oils, body temperature): ≤ 5 % by weight

— patent US8961958B2, “High concentration self-microemulsifying coenzyme Q10 preparations for nutritional use” (Bioavailability, Inc, priority 2004, dated 2015)
